“Also recorded” adds a separate entry of the source. Read-outs that look alike come from different tables or passages of the source.
Key:
[1] = test system: ZM4 (p42-0347); assay: Bioscreen growth of ZM4 (p42-0347) in RM with sodium and acetate ions; format: cell-based, Zymomonas mobilis; settings: for Final Cell Density / Growth rate: ZM4 (p42-0347), RM pH 5.0 supplemented with 195 mM of the chemical, anaerobic
Procedure: (§1) FIGS. 3A-3C. […] Z. mobilis strains were grown in RM (pH5.0) overnight, 20-μL culture were then transferred into 250-μL, RM media in the Bioscreen plate. […] Strains included in this study are: ZM4: Zymomonas mobilis ZM4 wild-type; AcR: ZM4 acetate tolerant mutant (Joachimstahl 1998); ZM4 (p42-0347): ZM4 containing a gateway plasmid p42-0347 over-expressing ZM4 gene ZMO0347; AcRIM0347: AcR insertional mutant of ZMO0347; AcRIM0347 (p42-0347): AcRIM0347 containing gateway plasmid p42-0347 over-expressing ZM4 gene ZMO0347. […] Triplicates were used for each condition.
(§2) FIGS. 4A-4E. […] Z. mobilis strains were grown in RM (pH5.0) overnight, 5-μL culture were then transferred into 250-μL RM media in the Bioscreen plate. […] Strains included in this study are: ZM4: Zymomonas mobilis ZM4 wild-type; AcR: ZM4 acetate tolerant mutant; ZM4 (p42-0347): ZM4 containing a gateway plasmid p42-0347 to express ZM4 gene ZMO0347; AcRIM0347: AcR insertional mutant of ZMO0347; AcRIM0347 (p42-0347): AcRIM0347 containing gateway plasmid p42-0347. […] Duplicate biological replicates were used for each condition.
(§3) American Type Culture Collection (ATCC31821) and the Z. mobilis acetate tolerant strain AcR has been described previously (Joachimsthal et al. 2000). ZM4 and AcR were cultured in RM medium at 30° C. S. cerevisiae wild-type, deletion mutant and GST-fusion ORF over-expression strains were obtained through Open Biosystems (Huntsville, Ala.). S. cerevisiae strains were cultured in rich YPD media. CM media with 2% glucose was used for S. cerevisiae wild-type and S. cerevisiae deletion mutants, CM media with 2% glucose minus uracil was used for S. cerevisiae GST-over expressing strains, 2% galactose was used to induce the GST-fusion strains. Plasmid-containing strains were routinely grown with antibiotics at the following concentrations (μg/mL): kanamycin of 50 for E. coli and 200 for ZM4; tetracycline, 10 for E. coli and 20 for ZM4; and gentamicin, 10 for E. coli. G418 of 200 for S. cerevisiae YKO deletion mutants. Growth was monitored turbidometrically by measuring optical density at 600nm periodically with the Bioscreen C automated microbiology growth curve analysis system (Growth Curve USA, Piscataway, N.J.).

[2] = test system: ZM4; settings: ethanol production; cited from earlier work
[3] = test system: AcR mutant; settings: cited from earlier work
[4] = test system: S. cerevisiae Lsm deletion mutants; format: cell-based
Procedure: (§4) FIGS. 6A-6B. […] S. cerevisiae strains were grown in CM with 2% glucose for wild-type BY4741 and the deletion mutants, CM with 2% glucose minus uracil for GST over-expression strains. Five-μL culture was then transferred into 300-μL CM broth in the Bioscreen plate.
(§5) FIGS. 7A-7P. […] S. cerevisiae strains were grown in CM with 2% glucose (CM+glucose) for wild-type BY4741 and the deletion mutants, CM with 2% glucose and 2% galactose minus uracil (CM+glucose+2% galactose) for GST overexpression strains. A 5-μL culture was then transferred into 250-μL CM broth in the Bioscreen plate.
American Type Culture Collection (ATCC31821) and the Z. mobilis acetate tolerant strain AcR has been described previously (Joachimsthal et al. 2000). ZM4 and AcR were cultured in RM medium at 30° C. S. cerevisiae wild-type, deletion mutant and GST-fusion ORF over-expression strains were obtained through Open Biosystems (Huntsville, Ala.). S. cerevisiae strains were cultured in rich YPD media. […] Growth was monitored turbidometrically by measuring optical density at 600nm periodically with the Bioscreen C automated microbiology growth curve analysis system (Growth Curve USA, Piscataway, N.J.).

[5] = test system: AcR: ZM4 acetate tolerant mutant; format: cell-based, Zymomonas mobilis; settings: for Final Cell Density / Growth rate: AcR
Procedure: as §1, §2
(§6) FIGS. 5A-5E. […] Z. mobilis strains were grown in RM (pH 5.0) overnight, 5-μL culture were then transferred into 250-μL RM media in the Bioscreen plate. […] Strains included in this study are: ZM4: Zymomonas mobilis ZM4 wild-type; AcR: ZM4 acetate tolerant mutant; AcRIM0347: AcR insertional mutant of ZMO0347; AcRIM0347 (p42-0347): AcRIM0347 containing gateway plasmid p42-0347 over-expressing ZM4 gene ZMO0347.
as §3

[6] = test system: AcRIM0347 (p42-0347); format: cell-based, Zymomonas mobilis; settings: for Lag phase of AcRIM0347 (p42-0347) versus AcRIM0347 grown with inhibitor: Table 4, FIGS. 5A-5D
Procedure: as §1, §2, §6, §3

[7] = test system: AcRIM0347: AcR insertional mutant of ZMO0347; format: cell-based, Zymomonas mobilis; settings: for Reduction of growth rate and final cell density of AcRIM0347 compared to parental strain AcR / Growth of hfq mutant AcRIM0347 in the presence of acetate salt: 195 mM in RM; for Final Cell Density / Growth rate: AcRIM0347
Procedure: as §1, §2, §6, §3

[8] = test system: Zymomonas mobilis ZM4 wild-type; assay: Bioscreen growth of Z. mobilis ZM4 wild-type in RM with inhibitors; format: cell-based; settings: for Relative inhibitory effect on wild-type Z. mobilis growth among sodium and acetate salts: 195 mM in RM; for Final Cell Density / Growth rate: ZM4
Procedure: as §1, §2, §6, §3

[9] = test system: S. cerevisiae Lsm protein over-expressing strains; assay: Bioscreen growth of S. cerevisiae Lsm protein over-expressing (GST) strains with inhibitors; format: cell-based
Procedure: as §4, §5, §3

[10] = test system: Z. mobilis; assay: Bioscreen growth of Z. mobilis with pretreatment inhibitors (strain not specified); format: cell-based, Zymomonas mobilis; settings: for Time to complete active growth and reach the stationary phase: in the presence of the inhibitor, 11 h without any inhibitor (FIGS. 5A-5D); for Relative inhibitory effect on Z. mobilis among vanillin, furfural and HMF: Table 4 conditions
Procedure: FIGS. 5A-5E. Z. mobilis Hfq conferred tolerance to different classes of pretreatment inhibitors. Z. mobilis strains were grown in RM (pH 5.0) overnight, 5-μL culture were then transferred into 250-μL RM media in the Bioscreen plate. The growth differences of different strains were monitored by Bioscreen (Growth Curves USA, NJ) under anaerobic conditions in RM, pH 5.0 (A), RM with 1 g/L vanillin, pH 5.0 (B), 1 g/L furfural, pH 5.0 (C), 1 g/L HMF, pH 5.0 (D) and 0.001% H2O2 (E). Strains included in this study are: ZM4: Zymomonas mobilis ZM4 wild-type; AcR: ZM4 acetate tolerant mutant; AcRIM0347: AcR insertional mutant of ZMO0347; AcRIM0347 (p42-0347): AcRIM0347 containing gateway plasmid p42-0347 over-expressing ZM4 gene ZMO0347. This experiment has been repeated at least three times with similar result for hydrogen peroxide growth and in duplicate for the vanillin growth.
as §3

[11] = test system: Zymomonas mobilis; settings: cited from earlier work
[12] = test system: recombinant Zymomonas mobilis 8b; settings: pure glucose/xylose solutions; cited from earlier work
[13] = pH 5.0; cited from earlier work
[14] = 16 g/L (195 mM) sodium acetate in RM
[15] = RM pH 5.0 supplemented with 195 mM of the chemical, anaerobic
[16] = AcRIM0347 (p42-0347), RM pH 5.0 supplemented with 195 mM of the chemical, anaerobic
[17] = RM pH 5.0 supplemented with 195 mM of the chemical, anaerobic, NA = lack of growth
[18] = RM with HMF 0.75 g/L, furfural or vanillin 1 g/L
[19] = AcRIM0347(p42-0347), RM with HMF 0.75 g/L, furfural or vanillin 1 g/L

Compound | Final Cell Density [1] | Growth rate [1] | Final Cell Density [5, 15] | Growth rate [5, 15] | Final Cell Density [6, 16] | Growth rate [6, 16] | Time to complete active growth and reach the stationary phase [10] | Final Cell Density [5, 18] | Growth rate [5, 18] | Final Cell Density [6, 19] | Growth rate [6, 19] | Lag phase of AcRIM0347 (p42-0347) versus AcRIM0347 grown with inhibitor [6] | Final Cell Density [7, 18] | Growth rate [7, 18] | Final Cell Density [8, 18] | Growth rate [8, 18] | Final Cell Density [8, 17] | Growth rate [8, 17] | further results
CC(=O)[O-].[Na+] [NaAc, sodium acetate] | 0.59 ± 0.002 OD600 nm | 0.27 ± 0.004 h⁻¹ | 0.63 ± 0.02 OD600 nm | 0.29 ± 0.04 h⁻¹ | 0.45 ± 0.002 OD600 nm | 0.16 ± 0.002 h⁻¹ |  |  |  |  |  |  |  |  |  |  |  |  | Growth of ZM4 (p42-0347) in the presence of sodium acetate [1, 14]: able to grow; Sodium acetate concentration above which parent ZM4 was inhibited significantly [2]: above 12 g/L; Sodium acetate concentration at which AcR was capable of efficient ethanol production [3]: 20 g/L; Growth of Lsm deletion mutants in the presence of sodium acetate ([4]; sodium acetate 40 g/L, Lsm1, 6, 7, 9, 12, 13, 16 deletions): negative effects on the growth; Reduction of growth rate and final cell density of AcRIM0347 compared to parental strain AcR [7]: about 60%; Final Cell Density [7, 17]: 0.25 ± 0.001 OD600 nm; Growth rate [7, 17]: 0.12 ± 0.004 h⁻¹; Relative inhibitory effect on wild-type Z. mobilis growth among sodium and acetate salts [8]: most significant inhibitory effect; Growth of wild-type ZM4 in the presence of sodium acetate [8, 14]: unable to grow; also recorded: completely inhibited; Growth of Lsm protein over-expressing strains in the presence of sodium acetate ([9]; sodium acetate 40 g/L, Lsm1, 6, 9, 12, 13, 16): enhanced growth
O=Cc1ccco1 [Furfural, furfural] |  |  |  |  |  |  | ~19 h | 0.89 ± 0.009 OD600 nm | 0.30 ± 0.005 h⁻¹ | 0.80 ± 0.02 OD600 nm | 0.20 ± 0.01 h⁻¹ | shorter lag phases | 0.67 ± 0.001 OD600 nm | 0.19 ± 0.03 h⁻¹ | 0.88 ± 0.006 OD600 nm | 0.31 ± 0.01 h⁻¹ |  |  | Growth of Lsm overexpression strains with inhibitor ([9]; 1.5 g/L): slight growth advantage
COc1cc(C=O)ccc1O [Vanillin, vanillin] |  |  |  |  |  |  | ~21 h | 0.71 ± 0.01 OD600 nm | 0.26 ± 0.01 h⁻¹ | 0.70 ± 0.01 OD600 nm | 0.20 ± 0.003 h⁻¹ | shorter lag phases | 0.66 ± 0.01 OD600 nm | 0.20 ± 0.006 h⁻¹ | 0.69 ± 0.006 OD600 nm | 0.26 ± 0.001 h⁻¹ |  |  | Relative inhibitory effect on Z. mobilis among vanillin, furfural and HMF [10]: most significant inhibitory effect; Growth of Lsm overexpression strains with inhibitor ([9]; 0.75 g/L): detrimental effect on growth
O=Cc1ccc(CO)o1 [HMF, hydroxymethyl furfural] |  |  |  |  |  |  | about 16 h | 0.96 ± 0.006 OD600 nm | 0.35 ± 0.01 h⁻¹ | 0.78 ± 0.02 OD600 nm | 0.22 ± 0.001 h⁻¹ | shorter lag phases | 0.67 ± 0.03 OD600 nm | 0.19 ± 0.02 h⁻¹ | 0.93 ± 0.003 OD600 nm | 0.36 ± 0.02 h⁻¹ |  |  | Relative inhibitory effect on Z. mobilis among vanillin, furfural and HMF [10]: least effect; Growth of Lsm overexpression strains with inhibitor ([9]; 1.5 g/L): slight growth advantage
CCO [ethanol] |  |  |  |  |  |  |  |  |  |  |  |  |  |  |  |  |  |  | Ethanol tolerance [11]: 12%
CC(=O)[O-].[K+] [Kac, potassium acetate] | 0.34 ± 0.004 OD600 nm | 0.12 ± 0.006 h⁻¹ | 0.40 ± 0.000 OD600 nm | 0.12 ± 0.000 h⁻¹ | 0.28 ± 0.007 OD600 nm | 0.09 ± 0.003 h⁻¹ |  |  |  |  |  |  |  |  |  |  | 0.42 ± 0.002 OD600 nm | 0.15 ± 0.004 h⁻¹ | Growth of hfq mutant AcRIM0347 in the presence of acetate salt [7]: unable to grow
CC(=O)O.N [NH4OAc, ammonium acetate] | 0.37 ± 0.008 OD600 nm | 0.19 ± 0.007 h⁻¹ | 0.42 ± 0.006 OD600 nm | 0.19 ± 0.005 h⁻¹ | 0.32 ± 0.007 OD600 nm | 0.22 ± 0.002 h⁻¹ |  |  |  |  |  |  |  |  |  |  | 0.43 ± 0.01 OD600 nm | 0.20 ± 0.008 h⁻¹ | Growth of hfq mutant AcRIM0347 in the presence of acetate salt [7]: unable to grow
[Cl-].[Na+] [NaCl, sodium chloride] | 0.84 ± 0.01 OD600 nm | 0.25 ± 0.008 h⁻¹ | 0.96 ± 0.01 OD600 nm | 0.29 ± 0.005 h⁻¹ | 0.72 ± 0.02 OD600 nm | 0.22 ± 0.009 h⁻¹ |  |  |  |  |  |  |  |  |  |  | 0.73 ± 0.01 OD600 nm | 0.24 ± 0.008 h⁻¹ | Growth differences between Lsm mutants and wild-type BY4741 ([4]; 305 mM NaCl in CM broth): not observed; Reduction of growth rate and final cell density of AcRIM0347 compared to parental strain AcR [7]: reduced by at least a quarter; Final Cell Density [7, 17]: 0.73 ± 0.03 OD600 nm; Growth rate [7, 17]: 0.21 ± 0.008 h⁻¹; Relative inhibitory effect on wild-type Z. mobilis growth among sodium and acetate salts [8]: least negative influence; Growth of Lsm overexpression strains compared to wild-type BY4741 ([9]; 305 mM NaCl): grew similarly to wild-type BY4741
CC(=O)O [acetic acid] |  |  |  |  |  |  |  |  |  |  |  |  |  |  |  |  |  |  | Acetic acid concentration tolerated [12]: up to 16 g/L; Fraction in the uncharged and undissociated form (HAc) [13]: 36%
OO [H2O2, hydrogen peroxide] |  |  |  |  |  |  |  |  |  |  |  |  |  |  |  |  |  |  | Growth of AcR in RM medium with H2O2 ([5]; 0.001% H2O2): grew well; Growth of AcRIM0347(p42-0347) in RM medium with H2O2 ([6]; 0.001% H2O2): to grow; Growth of AcRIM0347 in RM medium with H2O2 ([7]; 0.001% H2O2): no observable growth; Growth of ZM4 in RM medium with H2O2 ([8]; 0.001% H2O2): grew well
